# Data as given in ChEMBL document CHEMBL4665737, “An assay for DNA polymerase β lyase inhibitors that engage the catalytic nucleophile for binding” (Bioorg Med Chem, 2020).
# Activity calls are given as the source filed them. No cut-off for these calls is given here.
# Experiments:
# [1] = target: DNA polymerase beta (Rattus norvegicus) (UniProt P06766); assay: Binding affinity to rat DNA polymerase beta with methyl-lysine modification at 72 assessed as inhibition of dRP excision in presence of 32P-end labelled duplex DNA at 50 uM by SDS PAGE
# [2] = target: DNA polymerase beta (Homo sapiens) (UniProt P06746); assay: Binding affinity to wild type human DNA polymerase beta assessed as inhibition of dRP excision in presence of 32P-end labelled duplex DNA at 25 uM by SDS PAGE analysis
# [3] = target: DNA polymerase beta (Rattus norvegicus) (UniProt P06766); assay: Binding affinity to wild type rat DNA polymerase beta assessed as inhibition of dRP excision in presence of 32P-end labelled duplex DNA at 50 uM by SDS PAGE analysis
# [4] = target: DNA polymerase beta (Rattus norvegicus) (UniProt P06766); assay: Binding affinity to rat DNA polymerase beta with homo-lysine modification at 72 assessed as inhibition of dRP excision in presence of 32P-end labelled duplex DNA at 50 uM by SDS PAGE
# [5] = target: DNA polymerase beta (Homo sapiens) (UniProt P06746); assay: Binding affinity to human DNA polymerase beta with homo-lysine modification at 72 assessed as inhibition of dRP excision in presence of 32P-end labelled duplex DNA at 25 uM by SDS PAGE
# [6] = target: DNA polymerase beta (Homo sapiens) (UniProt P06746); assay: Binding affinity to human DNA polymerase beta with methyl-lysine modification at 72 assessed as inhibition of dRP excision in presence of 32P-end labelled duplex DNA at 25 uM by SDS PAGE
# [7] = target: DNA polymerase beta (Rattus norvegicus) (UniProt P06766); assay: Binding affinity to rat DNA polymerase beta with methyl-lysine modification at 72 assessed as inhibition of dRP excision in presence of 32P-end labelled duplex DNA at 10 uM by SDS PAGE
# [8] = target: DNA polymerase beta (Rattus norvegicus) (UniProt P06766); assay: Binding affinity to wild type rat DNA polymerase beta assessed as inhibition of dRP excision in presence of 32P-end labelled duplex DNA at 10 uM by SDS PAGE analysis
# [9] = target: DNA polymerase beta (Rattus norvegicus) (UniProt P06766); assay: Binding affinity to rat DNA polymerase beta with homo-lysine modification at 72 assessed as inhibition of dRP excision in presence of 32P-end labelled duplex DNA at 10 uM by SDS PAGE
# [10] = target: DNA polymerase beta (Rattus norvegicus) (UniProt P06766); assay: Binding affinity to wild type rat DNA polymerase beta assessed as inhibition of dRP excision in presence of 32P-end labelled duplex DNA at 25 uM by SDS PAGE analysis
# [11] = target: DNA polymerase beta (Rattus norvegicus) (UniProt P06766); assay: Binding affinity to rat DNA polymerase beta with homo-lysine modification at 72 assessed as inhibition of dRP excision in presence of 32P-end labelled duplex DNA at 25 uM by SDS PAGE
# [12] = target: DNA polymerase beta (Rattus norvegicus) (UniProt P06766); assay: Binding affinity to rat DNA polymerase beta with methyl-lysine modification at 72 assessed as inhibition of dRP excision in presence of 32P-end labelled duplex DNA at 25 uM by SDS PAGE
SMILES,inhibition [1],inhibition [2],inhibition [3],inhibition [4],inhibition [5],inhibition [6],inhibition [7],inhibition [8],inhibition [9],inhibition [10],inhibition [11],inhibition [12]
CC[C@H](CC[C@@H](C)[C@H]1CC[C@H]2[C@@H]3CCC4C[C@@H](OC(=O)c5ccccc5)CC[C@]4(C)[C@H]3CC[C@]12C)C(C)C (some centres not stated),Active,Active,Active,Active,Active,Active,–,–,–,–,–,–
CCCCCCCCC(O)C(O)CCCCCCCC(=O)O (racemic),–,–,–,–,–,–,Active,Active,Active,–,–,–
O=C(O)c1ccc(O)c(O)c1,50%,Active,50%,25%,Active,Active,–,–,–,–,–,–
CCCCCCCC[C@H]1O[C@H]1CCCCCCCC(=O)O (racemic),Active,–,Active,inactive,–,–,–,–,–,Active,inactive,Active
CC[C@H](/C=C/[C@@H](C)[C@H]1CC[C@H]2[C@@H]3CC=C4C[C@@H](O)CC[C@]4(C)[C@H]3CC[C@]12C)C(C)C,Active,Active,Active,Active,Active,Active,–,–,–,–,–,–
